Measured values: PubChem BioAssay AID1259407 (Chemical Carcinogenesis Research Information System (CCRIS), 2018)
The source made the active and inactive calls. How the calls were made is not given here.

Test system: CCRIS mutagenicity, Ames/micronucleus/aberration tests
Test: CCRIS mutagenicity studies
[1] = Test System: AMES SALMONELLA TYPHIMURIUM, Strain/Indicator: TA97, Metabolic Activation: NONE, Method: STANDARD PLATE
[2] = Test System: AMES SALMONELLA TYPHIMURIUM, Strain/Indicator: TA98, Metabolic Activation: NONE, Method: STANDARD PLATE
[3] = Test System: AMES SALMONELLA TYPHIMURIUM, Strain/Indicator: TA100, Metabolic Activation: NONE, Method: PREINCUBATION
[4] = Test System: AMES SALMONELLA TYPHIMURIUM, Strain/Indicator: TA100, Metabolic Activation: NONE, Method: STANDARD PLATE
[5] = Test System: AMES SALMONELLA TYPHIMURIUM, Strain/Indicator: TA1535, Metabolic Activation: NONE, Method: PREINCUBATION

## CCCCC(CC)COC(=O)c1ccccc1C(=O)O (configuration not stated)
[1]
  mutagenic call: inactive; negative
Test System: AMES SALMONELLA TYPHIMURIUM, Strain/Indicator: TA97, Metabolic Activation: RAT, LIVER, S-9, AROCLOR 1254, Method: STANDARD PLATE
  mutagenic call: inactive; negative
Test System: AMES SALMONELLA TYPHIMURIUM, Strain/Indicator: TA97, Metabolic Activation: RAT, LIVER, S-9, DI(2-ETHYLHEXYL)PHTHALATE, Method: STANDARD PLATE
  mutagenic call: inactive; negative
Test System: AMES SALMONELLA TYPHIMURIUM, Strain/Indicator: TA98, Metabolic Activation: HAMSTER, LIVER, S-9, AROCLOR 1254 (10%), Method: PREINCUBATION
  mutagenic call: inactive; negative
Test System: AMES SALMONELLA TYPHIMURIUM, Strain/Indicator: TA98, Metabolic Activation: NONE, Method: PREINCUBATION
  mutagenic call: inactive; negative
[2]
  mutagenic call: inactive; negative
Test System: AMES SALMONELLA TYPHIMURIUM, Strain/Indicator: TA98, Metabolic Activation: RAT, LIVER, S-9, AROCLOR 1254 (10%), Method: PREINCUBATION
  mutagenic call: inactive; negative
Test System: AMES SALMONELLA TYPHIMURIUM, Strain/Indicator: TA98, Metabolic Activation: RAT, LIVER, S-9, AROCLOR 1254, Method: STANDARD PLATE
  mutagenic call: inactive; negative
Test System: AMES SALMONELLA TYPHIMURIUM, Strain/Indicator: TA98, Metabolic Activation: RAT, LIVER, S-9, DI(2-ETHYLHEXYL)PHTHALATE, Method: STANDARD PLATE
  mutagenic call: inactive; negative
Test System: AMES SALMONELLA TYPHIMURIUM, Strain/Indicator: TA100, Metabolic Activation: HAMSTER, LIVER, S-9, AROCLOR 1254 (10%), Method: PREINCUBATION
  mutagenic call: inactive; negative
[3]
  mutagenic call: inactive; negative
[4]
  mutagenic call: inactive; negative
Test System: AMES SALMONELLA TYPHIMURIUM, Strain/Indicator: TA100, Metabolic Activation: RAT, LIVER, S-9, AROCLOR 1254 (10%), Method: PREINCUBATION
  mutagenic call: inactive; negative
Test System: AMES SALMONELLA TYPHIMURIUM, Strain/Indicator: TA100, Metabolic Activation: RAT, LIVER, S-9, AROCLOR 1254, Method: STANDARD PLATE
  mutagenic call: inactive; negative
Test System: AMES SALMONELLA TYPHIMURIUM, Strain/Indicator: TA100, Metabolic Activation: RAT, LIVER, S-9, DI(2-ETHYLHEXYL)PHTHALATE, Method: STANDARD PLATE
  mutagenic call: inactive; negative
Test System: AMES SALMONELLA TYPHIMURIUM, Strain/Indicator: TA102, Metabolic Activation: NONE, Method: STANDARD PLATE
  mutagenic call: inactive; negative
Test System: AMES SALMONELLA TYPHIMURIUM, Strain/Indicator: TA102, Metabolic Activation: RAT, LIVER, S-9, AROCLOR 1254, Method: STANDARD PLATE
  mutagenic call: inactive; negative
Test System: AMES SALMONELLA TYPHIMURIUM, Strain/Indicator: TA102, Metabolic Activation: RAT, LIVER, S-9, DI(2-ETHYLHEXYL)PHTHALATE, Method: STANDARD PLATE
  mutagenic call: inactive; negative
Test System: AMES SALMONELLA TYPHIMURIUM, Strain/Indicator: TA1535, Metabolic Activation: HAMSTER, LIVER, S-9, AROCLOR 1254 (10%), Method: PREINCUBATION
  mutagenic call: inactive; negative
[5]
  mutagenic call: inactive; negative
Test System: AMES SALMONELLA TYPHIMURIUM, Strain/Indicator: TA1535, Metabolic Activation: RAT, LIVER, S-9, AROCLOR 1254 (10%), Method: PREINCUBATION
  mutagenic call: inactive; negative
Test System: AMES SALMONELLA TYPHIMURIUM, Strain/Indicator: TA1537, Metabolic Activation: HAMSTER, LIVER, S-9, AROCLOR 1254 (10%), Method: PREINCUBATION
  mutagenic call: inactive; negative
Test System: AMES SALMONELLA TYPHIMURIUM, Strain/Indicator: TA1537, Metabolic Activation: NONE, Method: PREINCUBATION
  mutagenic call: inactive; negative
Test System: AMES SALMONELLA TYPHIMURIUM, Strain/Indicator: TA1537, Metabolic Activation: RAT, LIVER, S-9, AROCLOR 1254 (10%), Method: PREINCUBATION
  mutagenic call: inactive; negative

## C=CCc1[c-]cccc1.C=CCc1[c-]cccc1.[Pt+2]
Test System: AMES SALMONELLA TYPHIMURIUM, Strain/Indicator: TA92, Metabolic Activation: NONE, Method: STANDARD PLATE
  mutagenic call: inactive; negative
[2]
  mutagenic call: inactive; negative
[4]
  mutagenic call: inactive; negative
Test System: AMES SALMONELLA TYPHIMURIUM, Strain/Indicator: TA2410, Metabolic Activation: NONE, Method: STANDARD PLATE
  mutagenic call: inactive; negative

## O=C1C=CC(=O)C=C1
[1]
  mutagenic call: inactive; negative
Test System: AMES SALMONELLA TYPHIMURIUM, Strain/Indicator: TA97, Metabolic Activation: RAT, LIVER, S-9, AROCLOR 1254, Method: PREINCUBATION
  mutagenic call: inactive; negative
Test System: AMES SALMONELLA TYPHIMURIUM, Strain/Indicator: TA97, Metabolic Activation: RAT, LIVER, S-9, PCB, Method: STANDARD PLATE
  mutagenic call: inactive; negative
Test System: AMES SALMONELLA TYPHIMURIUM, Strain/Indicator: TA97, Metabolic Activation: RAT, LIVER, S-9, PHENOBARBITAL, Method: PREINCUBATION
  mutagenic call: inactive; negative
[2]
  mutagenic call: inactive; negative
Test System: AMES SALMONELLA TYPHIMURIUM, Strain/Indicator: TA98, Metabolic Activation: RAT, LIVER, S-9, AROCLOR 1254, Method: PREINCUBATION
  mutagenic call: inactive; negative
Test System: AMES SALMONELLA TYPHIMURIUM, Strain/Indicator: TA98, Metabolic Activation: RAT, LIVER, S-9, PCB, Method: STANDARD PLATE
  mutagenic call: inactive; negative
Test System: AMES SALMONELLA TYPHIMURIUM, Strain/Indicator: TA98, Metabolic Activation: RAT, LIVER, S-9, PHENOBARBITAL AND 5,6-BENZOFLAVONE, Method: PREINCUBATION
  mutagenic call: inactive; negative
Test System: AMES SALMONELLA TYPHIMURIUM, Strain/Indicator: TA98, Metabolic Activation: RAT, LIVER, S-9, PHENOBARBITAL, Method: PREINCUBATION
  mutagenic call: active; positive
Test System: AMES SALMONELLA TYPHIMURIUM, Strain/Indicator: TA100, Metabolic Activation: NONE, Method: FLUCTUATION TEST
  mutagenic call: inactive; negative
[3]
  mutagenic call: inactive; negative
[4]
  mutagenic call: inactive; negative
Test System: AMES SALMONELLA TYPHIMURIUM, Strain/Indicator: TA100, Metabolic Activation: RAT, LIVER, S-9, AROCLOR 1254, Method: PREINCUBATION
  mutagenic call: inactive; negative
Test System: AMES SALMONELLA TYPHIMURIUM, Strain/Indicator: TA100, Metabolic Activation: RAT, LIVER, S-9, PCB, Method: FLUCTUATION TEST
  mutagenic call: active; positive
Test System: AMES SALMONELLA TYPHIMURIUM, Strain/Indicator: TA100, Metabolic Activation: RAT, LIVER, S-9, PCB, Method: STANDARD PLATE
  mutagenic call: inactive; negative
Test System: AMES SALMONELLA TYPHIMURIUM, Strain/Indicator: TA100, Metabolic Activation: RAT, LIVER, S-9, PHENOBARBITAL, Method: PREINCUBATION
  mutagenic call: active; positive
Test System: AMES SALMONELLA TYPHIMURIUM, Strain/Indicator: TA102, Metabolic Activation: NONE, Method: PREINCUBATION
  mutagenic call: inactive; negative
Test System: AMES SALMONELLA TYPHIMURIUM, Strain/Indicator: TA102, Metabolic Activation: RAT, LIVER, S-9, AROCLOR 1254, Method: PREINCUBATION
  mutagenic call: inactive; negative
Test System: AMES SALMONELLA TYPHIMURIUM, Strain/Indicator: TA102, Metabolic Activation: RAT, LIVER, S-9, PHENOBARBITAL AND 5,6-BENZOFLAVONE, Method: PREINCUBATION
  mutagenic call: inactive; negative
Test System: AMES SALMONELLA TYPHIMURIUM, Strain/Indicator: TA104, Metabolic Activation: RAT, LIVER, S-9, AROCLOR 1254, Method: PREINCUBATION
  mutagenic call: inactive; negative
Test System: AMES SALMONELLA TYPHIMURIUM, Strain/Indicator: TA104, Metabolic Activation: RAT, LIVER, S-9, PHENOBARBITAL AND 5,6-BENZOFLAVONE, Method: PREINCUBATION
  mutagenic call: inactive; negative
[5]
  mutagenic call: inactive; negative
Test System: AMES SALMONELLA TYPHIMURIUM, Strain/Indicator: TA1535, Metabolic Activation: RAT, LIVER, S-9, AROCLOR 1254, Method: PREINCUBATION
  mutagenic call: inactive; negative
Test System: AMES SALMONELLA TYPHIMURIUM, Strain/Indicator: TA2637, Metabolic Activation: NONE, Method: PREINCUBATION
  mutagenic call: inactive; negative
Test System: AMES SALMONELLA TYPHIMURIUM, Strain/Indicator: TA2637, Metabolic Activation: RAT, LIVER, S-9, PHENOBARBITAL AND 5,6-BENZOFLAVONE, Method: PREINCUBATION
  mutagenic call: inactive; negative
Test System: CHINESE HAMSTER V-79, Strain/Indicator: V-79/6-THIOGUANINE, Metabolic Activation: NONE
  mutagenic call: active; positive
Test System: MOUSE LYMPHOMA, Strain/Indicator: L5178Y (TK+/TK-), Metabolic Activation: NONE, Method: SUSPENSION/PLATE
  mutagenic call: active; positive

## C[C@@]12CCC=C(C=O)[C@]1(C=O)C2
[2]
  mutagenic call: active; positive
[4]
  mutagenic call: active; positive
